Measurements from US12077503B2, “Substituted cyclic amides and their use as herbicides” (FMC CORPORATION, priority 2015, dated 2024).

Assays:
Format in all cases: in vivo
[1] = tested on: Kochia (Kochia scoparia); assay: Test A postemergence; conditions: Bassia scoparia, post-emergence, 240 h, postemergence, approx. 10 d; for pest or weed control at 125 g/ha: 125 g ai/ha, visual injury on 0 to 100 scale (0 no effect, 100 complete control), read-out: Kochia plant response rating; for pest or weed control at 500 g/ha: 500 g ai/ha, visual injury, 0 to 100 scale (0 no effect, 100 complete control), read-out: Plant response rating, Kochia
In short: (§1)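 Greenhouse, ~10 d after spray; visual injury vs untreated controls, 0 = no effect, 100 = complete control. Preemergence: directed soil spray over planted seeds. Postemergence: plants 2–10 cm, 1–2 leaf stage. Loam/sand blend. Compound in non-phytotoxic solvent with surfactant.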

[2] = tested on: giant foxtail (Setaria faberii); assay: Test A postemergence; conditions: Setaria faberi, post-emergence, 240 h, postemergence, approx. 10 d; for pest or weed control at 125 g/ha: 125 g ai/ha, visual injury on 0 to 100 scale (0 no effect, 100 complete control), read-out: Foxtail, Giant plant response rating; for pest or weed control at 500 g/ha: 500 g ai/ha, visual injury, 0 to 100 scale (0 no effect, 100 complete control), read-out: Plant response rating, Foxtail, Giant
In short: as §1

[3] = tested on: ryegrass, Italian (Italian ryegrass, Lolium multiflorum); assay: Test A postemergence; conditions: Lolium multiflorum, post-emergence, 240 h, 125 g ai/ha, postemergence; visual injury on 0 to 100 scale (0 no effect, 100 complete control), approx. 10 d; read-out: Ryegrass, Italian plant response rating
In short: as §1

[4] = tested on: ragweed (common ragweed, Ambrosia elatior); assay: Test A postemergence; conditions: Ambrosia artemisiifolia, post-emergence, 240 h, 125 g ai/ha, postemergence; visual injury on 0 to 100 scale (0 no effect, 100 complete control), approx. 10 d; read-out: Ragweed plant response rating
In short: as §1

[5] = tested on: pigweed (Amaranthus retroflexus); assay: Test A postemergence; conditions: Amaranthus retroflexus, post-emergence, 240 h, 125 g ai/ha, postemergence; visual injury on 0 to 100 scale (0 no effect, 100 complete control), approx. 10 d; read-out: Pigweed plant response rating
In short: as §1

[6] = tested on: wheat (Triticum aestivum); assay: Test A postemergence; conditions: Triticum aestivum, post-emergence, 240 h, 125 g ai/ha, postemergence; visual injury on 0 to 100 scale (0 no effect, 100 complete control), approx. 10 d; read-out: Wheat plant response rating
In short: as §1

[7] = tested on: corn (Zea mays); assay: Test A postemergence; conditions: Zea mays, post-emergence, 240 h, postemergence, approx. 10 d; for plant injury at 125 g/ha: 125 g ai/ha, visual injury on 0 to 100 scale (0 no effect, 100 complete control), read-out: Corn plant response rating; for Corn plant response rating (crop injury, 0 = no effect, 100 = complete kill) at 500 g/ha: 500 g ai/ha, visual injury, 0 to 100 scale (0 no effect, 100 complete control)
In short: as §1

[8] = tested on: Galium (catchweed bedstraw, Galium aparine); assay: Test A postemergence; conditions: Galium, post-emergence, 240 h, postemergence, approx. 10 d; for pest or weed control at 125 g/ha: 125 g ai/ha, visual injury on 0 to 100 scale (0 no effect, 100 complete control), read-out: Galium plant response rating; for pest or weed control at 500 g/ha: 500 g ai/ha, visual injury, 0 to 100 scale (0 no effect, 100 complete control), read-out: Plant response rating, Galium
In short: as §1

[9] = tested on: barnyardgrass (Echinochloa crus-galli); assay: Test A postemergence; conditions: Echinochloa crus-galli, post-emergence, 240 h, postemergence, approx. 10 d; for pest or weed control at 125 g/ha: 125 g ai/ha, visual injury on 0 to 100 scale (0 no effect, 100 complete control), read-out: Barnyardgrass plant response rating; for pest or weed control at 500 g/ha: 500 g ai/ha, visual injury, 0 to 100 scale (0 no effect, 100 complete control), read-out: Plant response rating, Barnyardgrass
In short: as §1

[10] = tested on: blackgrass (Alopecurus myosuroides); assay: Test A postemergence; conditions: Alopecurus myosuroides, post-emergence, 240 h, postemergence, approx. 10 d; for pest or weed control at 125 g/ha: 125 g ai/ha, visual injury on 0 to 100 scale (0 no effect, 100 complete control), read-out: Blackgrass plant response rating; for pest or weed control at 500 g/ha: 500 g ai/ha, visual injury, 0 to 100 scale (0 no effect, 100 complete control), read-out: Plant response rating, Blackgrass
In short: as §1

[11] = tested on: Kochia (Kochia scoparia); assay: Test A preemergence; conditions: Bassia scoparia, pre-emergence, 240 h; for pest or weed control at 125 g/ha: 125 g ai/ha, Preemergence, visual injury rating after approximately 10 d, read-out: Kochia plant response rating (0 to 100 scale, 0 is no effect, 100 is complete control); for pest or weed control at 500 g/ha: 500 g ai/ha, preemergence, visual injury rating about 10 d after treatment, 0 to 100 scale (0 no effect, 100 complete control), read-out: Kochia plant response rating
In short: as §1

[12] = tested on: giant foxtail (Setaria faberii); assay: Test A preemergence; conditions: Setaria faberi, pre-emergence, 240 h; for pest or weed control at 125 g/ha: 125 g ai/ha, Preemergence, visual injury rating after approximately 10 d, read-out: Foxtail, Giant plant response rating (0 to 100 scale, 0 is no effect, 100 is complete control); for pest or weed control at 500 g/ha: 500 g ai/ha, preemergence, visual injury rating about 10 d after treatment, 0 to 100 scale (0 no effect, 100 complete control), read-out: Foxtail, Giant plant response rating
In short: as §1

[13] = tested on: ryegrass, Italian (Italian ryegrass, Lolium multiflorum); assay: Test A preemergence; conditions: Lolium multiflorum, pre-emergence, 240 h; for pest or weed control at 125 g/ha: 125 g ai/ha, Preemergence, visual injury rating after approximately 10 d, read-out: Ryegrass, Italian plant response rating (0 to 100 scale, 0 is no effect, 100 is complete control); for pest or weed control at 500 g/ha: 500 g ai/ha, preemergence, visual injury rating about 10 d after treatment, 0 to 100 scale (0 no effect, 100 complete control), read-out: Ryegrass, Italian plant response rating
In short: as §1

[14] = tested on: ragweed (common ragweed, Ambrosia elatior); assay: Test A preemergence; conditions: Ambrosia artemisiifolia, pre-emergence, 240 h; for pest or weed control at 125 g/ha: 125 g ai/ha, Preemergence, visual injury rating after approximately 10 d, read-out: Ragweed plant response rating (0 to 100 scale, 0 is no effect, 100 is complete control); for pest or weed control at 500 g/ha: 500 g ai/ha, preemergence, visual injury rating about 10 d after treatment, 0 to 100 scale (0 no effect, 100 complete control), read-out: Ragweed plant response rating
In short: as §1

[15] = tested on: pigweed (Amaranthus retroflexus); assay: Test A preemergence; conditions: Amaranthus retroflexus, pre-emergence, 240 h; for pest or weed control at 125 g/ha: 125 g ai/ha, Preemergence, visual injury rating after approximately 10 d, read-out: Pigweed plant response rating (0 to 100 scale, 0 is no effect, 100 is complete control); for pest or weed control at 500 g/ha: 500 g ai/ha, preemergence, visual injury rating about 10 d after treatment, 0 to 100 scale (0 no effect, 100 complete control), read-out: Pigweed plant response rating
[16] = tested on: barnyardgrass (Echinochloa crus-galli); assay: Test A preemergence; conditions: Echinochloa crus-galli, pre-emergence, 240 h; for pest or weed control at 125 g/ha: 125 g ai/ha, Preemergence, visual injury rating after approximately 10 d, read-out: Barnyardgrass plant response rating (0 to 100 scale, 0 is no effect, 100 is complete control); for pest or weed control at 500 g/ha: 500 g ai/ha, preemergence, visual injury rating about 10 d after treatment, 0 to 100 scale (0 no effect, 100 complete control), read-out: Barnyardgrass plant response rating
In short: as §1

| SMILES | pest or weed control at 125 g/ha [1] [%] | pest or weed control at 500 g/ha [1] [%] | pest or weed control at 125 g/ha [2] [%] | pest or weed control at 500 g/ha [2] [%] | pest or weed control at 125 g/ha [3] [%] | pest or weed control at 125 g/ha [4] [%] | pest or weed control at 125 g/ha [5] [%] | plant injury at 125 g/ha [6] [%] | plant injury at 125 g/ha [7] [%] | Corn plant response rating (crop injury, 0 = no effect, 100 = complete kill) at 500 g/ha [7] [%] | pest or weed control at 125 g/ha [8] [%] | pest or weed control at 500 g/ha [8] [%] | pest or weed control at 125 g/ha [9] [%] | pest or weed control at 500 g/ha [9] [%] | pest or weed control at 125 g/ha [10] [%] | pest or weed control at 500 g/ha [10] [%] | pest or weed control at 125 g/ha [11] [%] | pest or weed control at 500 g/ha [11] [%] | pest or weed control at 125 g/ha [12] [%] | pest or weed control at 500 g/ha [12] [%] | also measured |
| --- | --- | --- | --- | --- | --- | --- | --- | --- | --- | --- | --- | --- | --- | --- | --- | --- | --- | --- | --- | --- | --- |
| Cc1cc([C@H]2CNC(=O)[C@@H]2C(=O)Nc2ccc(F)cc2F)ccc1C(F)(F)F [Compound 1043] | 0 | 40 | 70 | 80 | 0 | 0 | 0 | 0 | 20 | 60 | 20 | 40 | 50 | 80 | 20 | 30 | 60 | 70 | 70 | 90 | pest or weed control at 125 g/ha [13]: 20%; pest or weed control at 500 g/ha [13]: 50%; pest or weed control at 125 g/ha [14]: 0%; pest or weed control at 500 g/ha [14]: 50%; pest or weed control at 125 g/ha [15]: 0%; pest or weed control at 500 g/ha [15]: 20%; pest or weed control at 125 g/ha [16]: 80%; pest or weed control at 500 g/ha [16]: 90% |
| CN1CC(c2ccccc2OC(F)(F)C(F)F)C(C(=O)Nc2ccccc2F)C1=O (stereo not drawn) [Compound 1053] | 0 | 0 | 0 | 0 | 0 | 0 | 0 | 0 | 0 | 0 | 0 | 0 | 0 | 0 | 0 | 0 | 0 | 0 | 0 | 0 | pest or weed control at 125 g/ha [13]: 0%; pest or weed control at 500 g/ha [13]: 0%; pest or weed control at 125 g/ha [14]: 0%; pest or weed control at 500 g/ha [14]: 0%; pest or weed control at 125 g/ha [15]: 0%; pest or weed control at 500 g/ha [15]: 0%; pest or weed control at 125 g/ha [16]: 0%; pest or weed control at 500 g/ha [16]: 60% |
| O=C1NCC(c2ccccc2OC(F)(F)C(F)F)C1C(=O)Nc1cccc(F)c1F (stereo not drawn) [Compound 1054] | 0 | 0 | 0 | 0 | 0 | 0 | 0 | 0 | 0 | 0 | 0 | 0 | 0 | 0 | 0 | 0 | 0 | 0 | 0 | 0 | pest or weed control at 125 g/ha [13]: 0%; pest or weed control at 500 g/ha [13]: 0%; pest or weed control at 125 g/ha [14]: 0%; pest or weed control at 500 g/ha [14]: 0%; pest or weed control at 125 g/ha [15]: 0%; pest or weed control at 500 g/ha [15]: 0%; pest or weed control at 125 g/ha [16]: 0%; pest or weed control at 500 g/ha [16]: 0% |
